The target of assay [1] is T1, CDC25B (Homo sapiens, UniProt P30305).
T1 construct: Recombinant forms of the catalytic domains of CDC25A, -B and -C were obtained through the vectors pET28a-CDC25A-cd, pET28a-CDC25B-cd and pET28a-CDC25C-cd; made in house
T1 sequence (P30305 431-538 limits assumed): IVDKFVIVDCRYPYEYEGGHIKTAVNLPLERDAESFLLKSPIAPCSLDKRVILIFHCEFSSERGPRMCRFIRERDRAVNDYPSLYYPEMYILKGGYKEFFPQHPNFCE
The assay is described as follows: Residual phosphatase activity of recombinant CDC25B, fluorimetric OMFP assay. The format is biochemical. Particulars: 10 nM CDC25B, 25 μM OMFP, read-out: CDC25B residual activity (%) in the presence of [inhibitor]. The protocol: Among the twenty-five structures identified from the multiple ligand-based chemoinformatic approach, eight compounds (2, 10, 12–14, and 16–18) were excluded from the analysis, because endowed with a strong fluorescent signal, which interfered with the emission wavelength of the synthetic substrate 3-O-methylfluorescein phosphate (OMFP) used in the fluorimetric assay. The inhibition of the phosphatase activity of CDC25B by the remaining seventeen analogs was evaluated in the presence of two different concentrations of these compounds (Table 2). […] For this reason, only one of these latter compounds, i.e. 3, was included in the following analysis.
The enzymatic activity of the catalytic domains of CDC25A, -B and -C were determined through a fluorimetric method, which monitored the dephosphorylation of the synthetic substrate OMFP, essentially as previously described. In steady-state enzyme kinetic studies, the residual phosphatase activity of purified recombinant CDC25B was measured at 30°C in the presence of different concentrations of the various inhibitors, using a computer-assisted Cary Eclipse spectrofluorimeter (Varian) equipped with an electronic temperature controller. Excitation and emission wavelengths were set at 485 and 530 nm, respectively; both excitation and emission slits were set at 10 nm. The reaction mixture contained 10 nM CDC25B and different concentrations of the various inhibitors in 500 μL final volume of 20 mM Tris-HCl, pH 7.8, 1 mM DTT. DMSO was used as vehicle control. The reaction started by the addition of 25 μM OMFP, and the formation of the fluorescent product o-methylfluorescein was monitored continuously. The rate of OMFP hydrolysis was expressed as arbitrary units per min (a.u./min). The comparison of the rates determined in the absence and in the presence of the various inhibitors allowed the calculation of the residual phosphatase activity, expressed as a percentage.

The target of assay [2] is T2, CDC25C (Homo sapiens, UniProt P30307).
T2 construct: Recombinant forms of the catalytic domains of CDC25A, -B and -C were obtained through the vectors pET28a-CDC25A-cd, pET28a-CDC25B-cd and pET28a-CDC25C-cd; made in house
T2 sequence (P30307 321-428 limits assumed): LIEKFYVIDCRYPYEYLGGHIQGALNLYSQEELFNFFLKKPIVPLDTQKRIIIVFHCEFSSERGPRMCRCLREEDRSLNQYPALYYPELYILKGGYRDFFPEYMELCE
The assay is described as follows: Ki from OMFP hydrolysis kinetics (Lineweaver-Burk), CDC25C. The format is biochemical. Particulars: 40 nM CDC25C, 1–25 μM OMFP; mean ± S.E.; read-out: Ki CDC25C. The protocol: To measure the inhibition constant (Ki) of the recombinant forms of CDC25A, -B and -C towards the various inhibitors, the affinity of the different forms of CDC25 towards OMFP was measured either in the absence or in the presence of fixed concentrations of the various inhibitors. The reaction mixture contained 20 nM CDC25A, or 10 nM CDC25B, or 40 nM CDC25C, and different concentrations of the various inhibitors in 500 μL final volume of 20 mM Tris-HCl, pH 7.8, 1 mM DTT. DMSO was used as vehicle control. […] The corresponding Lineweaver-Burk plots allowed the calculation of the KM for OMFP and of the Vmax of OMFP hydrolysis, expressed as a.u./minmax. […] The Ki values were obtained from the decrease of a.u./minmax in the presence of the inhibitor, according to the equation a.u./mimmax’ = a.u./mimmax/{1 + ([I]/Ki)}, where a.u./mimmax’ represents the Vmax measured in the presence of the concentration [I] of the inhibitor. The Ki values were obtained from at least three independent experiments and reported as mean ± S.E.

For assay [3], the system named is A2058 cells. Put plainly: MTT cell growth rate, A2058 melanoma cells. The format is cell-based, human. Particulars: A2058, 100 μM, 48 h, MTT. The protocol:
(§1) The human melanoma cell line A2058, kindly provided by CEINGE (Naples, Italy), and SAN cells were derived from lymph nodal metastases and grown in DMEM and RPMI 1640, respectively, supplemented with 10% FBS, 2 mM L-glutamine, 100 IU/mL penicillin G, and 100 μg/mL streptomycin in humidified incubator at 37°C under 5% CO2 atmosphere. All cells were split and seeded every three days and used during the exponential phase of growth. Cell treatments were always carried after 24 h from plating.
(§2) The MTT assay was used to detect cell proliferation essentially as previously described. Briefly, A2058 and SAN cells were plated in 96-well microtiter plates (100 μL/well) at 4000 and 6000 cells/well, respectively. After 24-h seeding, cells were treated with the selected compounds added at 25, 50 or 100 μM concentration, or with 0.5% (v/v) DMSO as a vehicle control. After 24-h, 48-h or 72-h treatment, and upon the addition of 10 μL of MTT solution in the dark, the plate was incubated for 3 h at 37°C under CO2 atmosphere. After medium aspiration and solubilization of formazan crystals, absorbance was measured at 570 nm, using an ELISA plate reader (Bio-Rad, Milano, Italy).

Assay [4] has as its system SAN cells. The assay is described as follows: MTT cell growth rate, SAN melanoma cells. The following applies: 100 μM, 72 h, MTT (not shown). The format is cell-based, human. The protocol:
as §1, §2

For assay [5], the system named is MCF-7 breast cancer cell line. Further details: method as in PMID 22524450. The following applies: cited from earlier work.
Assay [6] deals with PC-3 prostate cancer cell line. On the set-up: method as in PMID 22524450. The following applies: cited from earlier work.
Assay [7] relates to K562 leukaemia cancer cell line. On the set-up: method as in PMID 22524450. Particulars: cited from earlier work.
The test system of assay [8] is SAN cells. Put plainly: Intracellular ROS level (DCFH-DA), SAN cells. The format is cell-based, human. The following applies: SAN cells not treated with 7, 0.5 mM apocynin. The protocol:
The high redox reactivity of quinonoid molecules, like compound 7, could greatly perturb the intracellular redox state. […] The oxidant effect of 7 was also evaluated after cell pre-treatment with two antioxidant molecules, such as N-acetyl-cysteine (NAC) and the specific inhibitor of NADPH oxidase, apocynin. To this aim, A2058 and SAN cells were pre-incubated for 1 h with 10 mM NAC or 45 min with 0.5 mM apocynin and then treated for 4 h with 100 μM compound 7. […] The cytotoxic activity of 7 could be mediated by the observed increase of ROS level.
The intracellular ROS level was monitored using the oxidation-sensitive fluorescence probe DCFH-DA. Cells were seeded into 6-well-plates (3 × 10^5 cells/plate) for 24 h at 37°C and then treated at various times with 100 μM compound 7 or 0.5% DMSO. DCFH-DA was added in the dark at 10 μM final concentration 30-min before the end of each incubation; then, cells were collected, washed in PBS, and finally resuspended in 500 μL PBS for fluorimetric analysis. Measurements were realized in a Cary Eclipse fluorescence spectrophotometer (Varian); excitation and emission wavelengths were set at 485 nm and 530 nm, respectively; both excitation and emission slits were set at 10 nm. The effect of 7 on ROS production was also estimated after pretreatment of cells with 10 mM NAC for 1 h.
Supplementary Figure S5: ROS production and their involvement in the apoptotic process of SAN cells, as induced by treatment with compound 7. A. Time-dependent measurement of ROS production. Cells were incubated with 0.5% DMSO (open bars) or 100 μM compound 7 (black bars) and then the intracellular ROS level was measured. B. Effect of antioxidant molecules on ROS production. The ROS level was also measured in cells untreated or pretreated with NAC or apocynin after a 4-h incubation with DMSO or 7. C. Effect of NAC on apoptosis. The PI incorporation was evaluated in cells untreated or pretreated with NAC after a 48-h incubation with DMSO or 7. ROS production was expressed as a.u., and apoptosis as a percentage. […]

As a reminder, the Ki is a dissociation constant, usually derived from enzyme kinetics or from competition with a known ligand. On to `O=C(O)CCc1c2ccc(=O)c(O)c-2oc2c(O)c(O)ccc12` [NSC 119915, reference compound], for which, in assay [1] (0.2 μM inhibitor), the remaining activity at 0.2 µM is 38%. Moreover, the remaining activity at 1 µM in assay [1] (1 μM inhibitor) stood at 2%. Also, in assay [2], the inhibition constant (Ki) was 240 ± 130 nM. Moreover, the cell growth rate result was “quite ineffective or caused a not significant reduction of cell growth rate” in assay [3] and “significant reduction of cell growth rate” in assay [4]. Further, the “growth of cancer cell line” value in assay [5], in assay [6] and in assay [7] was “significantly inhibited the growth” in each case.

On to `COc1cc(C(C)=O)ccc1O` [apocynin, reference compound], for which, in assay [8], the “basal intracellular redox state” value is listed as “raised the basal intracellular redox state”.

These data come from publication PMC4741889, “Ligand-based chemoinformatic discovery of a novel small molecule inhibitor targeting CDC25 dual specificity phosphatases and displaying in vitro efficacy against melanoma cells” (Oncotarget, 2015).
